Assay results as given in PubChem BioAssay AID1963849 (Molecular Pharmacology Branch, DTP, NCI, 2024).

Tested on: 299254-011-R-J1-PDC complex spheroid viability
Experiment: Anticancer human tumor 299254-011-R-J1-PDC patient-derived melanoma cell line growth inhibition [POLQ]
Settings: for IC50: curve of first compound; for viability, T/C: stronger effect = lower value; active = viability on the fitted dose curve at most 10% of control; inactive = the rest
How it was run: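 Three-cell-type spheroids modelling solid tumor plus stroma served as the readout system; POL inhibitors were tested individually and in combination, concentration ranges set by clinical Cmax where known.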

[1] = second compound 0.0316 µM, first compound 0.0316 µM
[2] = second compound 0.0316 µM, first compound 0.1 µM
[3] = second compound 0.0316 µM, first compound 0.316 µM
[4] = second compound 0.0316 µM, first compound 1 µM
[5] = second compound 0.0316 µM, first compound 3.16 µM
[6] = second compound 0.0316 µM, first compound 10 µM
[7] = second compound 0.1 µM, first compound 0.0316 µM
[8] = second compound 0.1 µM, first compound 0.1 µM
[9] = second compound 0.1 µM, first compound 0.316 µM
[10] = second compound 0.1 µM, first compound 1 µM
[11] = second compound 0.1 µM, first compound 3.16 µM
[12] = second compound 0.1 µM, first compound 10 µM
[13] = second compound 0.316 µM, first compound 0.0316 µM
[14] = second compound 0.316 µM, first compound 0.1 µM
[15] = second compound 0.316 µM, first compound 0.316 µM
[16] = second compound 0.316 µM, first compound 1 µM
[17] = second compound 0.316 µM, first compound 3.16 µM
[18] = second compound 0.316 µM, first compound 10 µM
[19] = second compound 1 µM, first compound 0.0316 µM
[20] = second compound 1 µM, first compound 0.1 µM
[21] = second compound 1 µM, first compound 0.316 µM
[22] = second compound 1 µM, first compound 1 µM
[23] = second compound 1 µM, first compound 3.16 µM
[24] = second compound 1 µM, first compound 10 µM
[25] = second compound 3.16 µM, first compound 0.0316 µM
[26] = second compound 3.16 µM, first compound 0.1 µM
[27] = second compound 3.16 µM, first compound 0.316 µM
[28] = second compound 3.16 µM, first compound 1 µM
[29] = second compound 3.16 µM, first compound 3.16 µM
[30] = second compound 3.16 µM, first compound 10 µM
[31] = second compound 10 µM, first compound 0.0316 µM
[32] = second compound 10 µM, first compound 0.1 µM
[33] = second compound 10 µM, first compound 0.316 µM
[34] = second compound 10 µM, first compound 1 µM
[35] = second compound 10 µM, first compound 3.16 µM
[36] = second compound 10 µM, first compound 10 µM
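Also: spheroids exposed to drugs for one week before measurement.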
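For viability, T/C in this document: percent viability relative to DMSO vehicle control taken as 100%.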

CC1COCCN1c1cc(-c2ccnn2C)c2ccnc(-c3ccn[nH]3)c2n1 (stereo not drawn) + Nc1ccc(C#CCN(C(=O)Cc2ncc(C(F)(F)F)cc2C(F)(F)F)c2ccc(F)cc2)nn1
264 nM: IC50 (second compound 1 µM)
226 nM: IC50 (second compound 0.1 µM)
inactive: viability, T/C [1] 87.8% | viability, T/C [2] 80.3% | viability, T/C [3] 43.7% | viability, T/C [4] 36.3% | viability, T/C [5] 22.3% | viability, T/C [6] 18.7% | viability, T/C [7] 102% | viability, T/C [8] 70.9% | viability, T/C [9] 41.9% | viability, T/C [10] 27.8% | viability, T/C [11] 23.2% | viability, T/C [12] 25.4% | viability, T/C [13] 102% | viability, T/C [14] 70.5% | viability, T/C [15] 50.4% | viability, T/C [16] 31.2% | viability, T/C [17] 28.1% | viability, T/C [18] 19.5% | viability, T/C [19] 88.7% | viability, T/C [20] 68.5% | viability, T/C [21] 43.8% | viability, T/C [22] 33.8% | viability, T/C [23] 31.2% | viability, T/C [24] 19.6% | viability, T/C [25] 84.7% | viability, T/C [26] 62.6% | viability, T/C [27] 36.3% | viability, T/C [28] 32.4% | viability, T/C [29] 19.9% | viability, T/C [30] 25.4% | viability, T/C [31] 82.5% | viability, T/C [32] 54.6% | viability, T/C [33] 42.6% | viability, T/C [34] 33.2% | viability, T/C [35] 20.7% | viability, T/C [36] 25.2%
311 nM: IC50 (second compound 0.0316 µM)
295 nM: IC50 (second compound 0.316 µM)
160 nM: IC50 (second compound 10 µM)
179 nM: IC50 (second compound 3.16 µM)

CCc1c2c(nc3ccc(O)cc13)-c1cc3c(c(=O)n1C2)COC(=O)[C@]3(O)CC + Cc1cccc(N(C)C(=O)C2C(O)CCN2c2nc(C)cc(C(F)(F)F)c2C#N)c1
inactive: viability, T/C (second compound 0.0316 µM, first compound 0.00316 µM) 95.9% | viability, T/C (second compound 0.0316 µM, first compound 0.01 µM) 79.2% | viability, T/C [1] 72.9% | viability, T/C [2] 67.8% | viability, T/C [3] 62.5% | viability, T/C [4] 53.7% | viability, T/C (second compound 0.1 µM, first compound 0.00316 µM) 92.8% | viability, T/C (second compound 0.1 µM, first compound 0.01 µM) 95.7% | viability, T/C [7] 65.3% | viability, T/C [8] 67.6% | viability, T/C [9] 72.8% | viability, T/C [10] 56.4% | viability, T/C (second compound 0.316 µM, first compound 0.00316 µM) 104% | viability, T/C (second compound 0.316 µM, first compound 0.01 µM) 86.3% | viability, T/C [13] 75.3% | viability, T/C [14] 76.2% | viability, T/C [15] 56.7% | viability, T/C [16] 53% | viability, T/C (second compound 1 µM, first compound 0.00316 µM) 111% | viability, T/C (second compound 1 µM, first compound 0.01 µM) 88.5% | viability, T/C [19] 75.1% | viability, T/C [20] 64.7% | viability, T/C [21] 68.6% | viability, T/C [22] 49.6% | viability, T/C (second compound 3.16 µM, first compound 0.00316 µM) 112% | viability, T/C (second compound 3.16 µM, first compound 0.01 µM) 79% | viability, T/C [25] 72.1% | viability, T/C [26] 64.8% | viability, T/C [27] 71.6% | viability, T/C [28] 60% | viability, T/C (second compound 10 µM, first compound 0.00316 µM) 88.6% | viability, T/C (second compound 10 µM, first compound 0.01 µM) 69.3% | viability, T/C [31] 57.9% | viability, T/C [32] 81.5% | viability, T/C [33] 60.1% | viability, T/C [34] 49.7%
> 1000 nM: IC50 (second compound 0.0316 µM) | IC50 (second compound 0.1 µM) | IC50 (second compound 0.316 µM) | IC50 (second compound 1 µM) | IC50 (second compound 3.16 µM) | IC50 (second compound 10 µM)

O=C(c1cc(Cc2n[nH]c(=O)c3ccccc23)ccc1F)N1CCN(C(=O)C2CC2)CC1 + Nc1ccc(C#CCN(C(=O)Cc2ncc(C(F)(F)F)cc2C(F)(F)F)c2ccc(F)cc2)nn1
inactive: viability, T/C [1] 120% | viability, T/C [2] 96.6% | viability, T/C [3] 92.4% | viability, T/C [4] 91.7% | viability, T/C [5] 107% | viability, T/C [6] 95.6% | viability, T/C [7] 94% | viability, T/C [8] 105% | viability, T/C [9] 97.2% | viability, T/C [10] 95.3% | viability, T/C [11] 112% | viability, T/C [12] 88% | viability, T/C [13] 111% | viability, T/C [14] 122% | viability, T/C [15] 106% | viability, T/C [16] 105% | viability, T/C [17] 97.2% | viability, T/C [18] 84.6% | viability, T/C [19] 105% | viability, T/C [20] 95.4% | viability, T/C [21] 100% | viability, T/C [22] 110% | viability, T/C [23] 109% | viability, T/C [24] 85.3% | viability, T/C [25] 103% | viability, T/C [26] 96.7% | viability, T/C [27] 94.8% | viability, T/C [28] 113% | viability, T/C [29] 93.8% | viability, T/C [30] 71% | viability, T/C [31] 89.1% | viability, T/C [32] 98.5% | viability, T/C [33] 113% | viability, T/C [34] 88.8% | viability, T/C [35] 99.4% | viability, T/C [36] 63.5%
> 10000 nM: IC50 (second compound 0.0316 µM) | IC50 (second compound 0.1 µM) | IC50 (second compound 0.316 µM) | IC50 (second compound 1 µM) | IC50 (second compound 3.16 µM) | IC50 (second compound 10 µM)

C#Cc1c(F)ccc2cc(O)cc(-c3ncc4c(N5CC6CCC(C5)N6)nc(OCC56CCCN5CC(F)C6)nc4c3F)c12 (stereo not drawn) + Cc1cccc(N(C)C(=O)C2C(O)CCN2c2nc(C)cc(C(F)(F)F)c2C#N)c1
inactive: viability, T/C [1] 113% | viability, T/C [2] 102% | viability, T/C [3] 123% | viability, T/C [4] 120% | viability, T/C [5] 124% | viability, T/C [6] 93.9% | viability, T/C [7] 105% | viability, T/C [8] 122% | viability, T/C [9] 120% | viability, T/C [10] 125% | viability, T/C [11] 97.8% | viability, T/C [12] 85.5% | viability, T/C [13] 105% | viability, T/C [14] 108% | viability, T/C [15] 124% | viability, T/C [16] 99.2% | viability, T/C [17] 114% | viability, T/C [18] 75.5% | viability, T/C [19] 123% | viability, T/C [20] 109% | viability, T/C [21] 113% | viability, T/C [22] 113% | viability, T/C [23] 103% | viability, T/C [24] 74.6% | viability, T/C [25] 114% | viability, T/C [26] 99.9% | viability, T/C [27] 118% | viability, T/C [28] 111% | viability, T/C [29] 92% | viability, T/C [30] 78.1% | viability, T/C [31] 110% | viability, T/C [32] 108% | viability, T/C [33] 108% | viability, T/C [34] 105% | viability, T/C [35] 80.1% | viability, T/C [36] 64.2%
> 10000 nM: IC50 (second compound 0.0316 µM) | IC50 (second compound 0.1 µM) | IC50 (second compound 0.316 µM) | IC50 (second compound 1 µM) | IC50 (second compound 3.16 µM) | IC50 (second compound 10 µM)
